Earlier results, collected in patent publication EP4810529A1, “1,1-DICYANOETHYLENE-CONTAINING COMPOSITION, CURED PRODUCT, LAMINATE, AND METHOD FOR PRODUCING 1,1-DICYANOETHYLENE-CONTAINING COMPOSITION” (Kuraray Co., Ltd., priority 2023, dated 2025).

Conditions: logarithmic acid dissociation constant, room temperature, aqueous system, first stage

O=[N+]([O-])O [nitric acid]
pKa: -1.3
